Results as given in ChEMBL document CHEMBL5338776, “Design and Characterization of Squaramic Acid-Based Prostate-Specific Membrane Antigen Inhibitors for Prostate Cancer” (J Med Chem, 2023).
One block for each compound: values may come before it.

Tests used:
[1] = molecular target: T1, Glutamate carboxypeptidase 2 (Homo sapiens, UniProt Q04609); experiment: Binding affinity to human recombinant PSMA (unknown origin) assessed as inhibition constant incubated for 60 mins in presence of NAAG
[2] = Drug uptake in 22Rv1 tumor bearing mouse assessed as fluorescence in pancreas measured at 0.85 mg/kg, iv after 24 hrs by NIR-II imaging analysis; assay type: ADME, organism-based; settings: in vivo
[3] = Drug uptake in 22Rv1 tumor bearing mouse assessed as tumor to liver ratio measured at 0.85 mg/kg, iv after 24 hrs by NIR-II imaging analysis; assay type: ADME, organism-based; settings: in vivo
[4] = Drug uptake in 22Rv1 tumor bearing mouse measured at 0.85 mg/kg, iv after 24 hrs in presence of (2S)-2-[[(1S)-1-Carboxy-5-[(4-iodobenzoyl)amino]pentyl]carbamoylamino]pentanedioic acid by NIR-II imaging analysis; assay type: ADME, organism-based, Neoplasm; settings: in vivo
[5] = Drug uptake in 22Rv1 tumor bearing mouse assessed as fluorescence in stomach measured at 0.85 mg/kg, iv after 24 hrs by NIR-II imaging analysis; assay type: ADME, organism-based; settings: in vivo
[6] = Drug uptake in 22Rv1 tumor bearing mouse assessed as tumor to normal tissue ratio measured at 0.85 mg/kg, iv after 24 hrs by NIR-II imaging analysis; assay type: ADME, organism-based; settings: in vivo
[7] = Drug uptake in 22Rv1 tumor bearing mouse assessed as fluorescence in brain measured at 0.85 mg/kg, iv after 24 hrs by NIR-II imaging analysis; assay type: ADME, organism-based; settings: in vivo
[8] = Drug uptake in 22Rv1 tumor bearing mouse assessed as fluorescence in tumor measured at 0.85 mg/kg, iv after 24 hrs by NIR-II imaging analysis; assay type: ADME, organism-based, Neoplasm; settings: in vivo
[9] = Drug uptake in 22Rv1 tumor bearing mouse assessed as fluorescence in kidney measured at 0.85 mg/kg, iv after 24 hrs by NIR-II imaging analysis; assay type: ADME, organism-based; settings: in vivo
[10] = Drug uptake in 22Rv1 tumor bearing mouse assessed as fluorescence in heart measured at 0.85 mg/kg, iv after 24 hrs by NIR-II imaging analysis; assay type: ADME, organism-based; settings: in vivo
[11] = Drug uptake in 22Rv1 tumor bearing mouse assessed as fluorescence in liver measured at 0.85 mg/kg, iv after 24 hrs by NIR-II imaging analysis; assay type: ADME, organism-based; settings: in vivo
[12] = Drug uptake in 22Rv1 tumor bearing mouse assessed as fluorescence in muscle measured at 0.85 mg/kg, iv after 24 hrs by NIR-II imaging analysis; assay type: ADME, organism-based, Muscle tissue; settings: in vivo
[13] = Drug uptake in 22Rv1 tumor bearing mouse assessed as fluorescence in spleen measured at 0.85 mg/kg, iv after 24 hrs by NIR-II imaging analysis; assay type: ADME, organism-based; settings: in vivo
[14] = Drug uptake in 22Rv1 tumor bearing mouse assessed as fluorescence in lung measured at 0.85 mg/kg, iv after 24 hrs by NIR-II imaging analysis; assay type: ADME, organism-based; settings: in vivo
[15] = Drug uptake in 22Rv1 tumor bearing mouse assessed as fluorescence in intestine measured at 0.85 mg/kg, iv after 24 hrs by NIR-II imaging analysis; assay type: ADME, organism-based; settings: in vivo
[16] = molecular target: T1, Glutamate carboxypeptidase 2; experiment: Binding affinity to PSMA (unknown origin) assessed as inhibition constant

T1 sequence (Q04609 whole entry): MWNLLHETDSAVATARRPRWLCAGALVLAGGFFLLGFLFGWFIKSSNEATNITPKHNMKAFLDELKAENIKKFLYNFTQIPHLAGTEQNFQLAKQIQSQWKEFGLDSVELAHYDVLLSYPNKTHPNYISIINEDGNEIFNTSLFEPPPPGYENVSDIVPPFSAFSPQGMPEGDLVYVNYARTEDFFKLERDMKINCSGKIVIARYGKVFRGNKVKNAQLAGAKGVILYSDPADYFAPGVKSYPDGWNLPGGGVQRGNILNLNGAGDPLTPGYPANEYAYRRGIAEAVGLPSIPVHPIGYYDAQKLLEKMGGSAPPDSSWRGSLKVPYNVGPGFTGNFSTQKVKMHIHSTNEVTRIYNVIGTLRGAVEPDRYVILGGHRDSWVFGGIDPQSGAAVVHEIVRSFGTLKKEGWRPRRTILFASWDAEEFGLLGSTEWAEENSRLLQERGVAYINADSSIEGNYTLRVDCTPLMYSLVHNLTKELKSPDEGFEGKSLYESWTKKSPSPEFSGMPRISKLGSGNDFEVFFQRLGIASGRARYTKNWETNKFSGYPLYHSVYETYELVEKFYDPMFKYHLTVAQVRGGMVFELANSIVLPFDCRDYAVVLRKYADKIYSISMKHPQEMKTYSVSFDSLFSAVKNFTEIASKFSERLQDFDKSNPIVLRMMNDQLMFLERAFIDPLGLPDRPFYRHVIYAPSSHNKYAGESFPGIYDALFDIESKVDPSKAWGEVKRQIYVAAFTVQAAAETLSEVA

SMILES: CN(CCC(=O)NCCCC[C@H](NC(=O)N[C@@H](CCC(=O)O)C(=O)O)C(=O)O)c1ccc(-c2c3c(c(-c4ccc(N(C)CCC(=O)NCCCC[C@H](NC(=O)N[C@@H](CCC(=O)O)C(=O)O)C(=O)O)cc4)c4nsnc24)N=S=N3)cc1
Ratio [6]: 6.66

SMILES: CC1(C)C(/C=C2/C(=O)C(/C=C3\N(CCCCCC(=O)NCCCC[C@H](NC(=O)N[C@@H](CCC(=O)O)C(=O)O)C(=O)O)c4ccccc4C3(C)C)=C2[O-])=[N+](CCCCCC(=O)NCCCC[C@H](NC(=O)N[C@@H](CCC(=O)O)C(=O)O)C(=O)O)c2ccccc21
Ki [16]: 0.74 nM

SMILES: O=C(O)CC(=O)NC[C@H](NC(=O)N[C@@H](CCCCNC(=O)c1ccc(I)cc1)C(=O)O)C(=O)O
Ki [1]: 221 nM

SMILES: O=C(O)CC(=O)NC[C@H](NC(=O)N[C@@H](CCCCNC(=O)c1cc(I)cc(C(=O)NCCCC[C@H](NC(=O)N[C@@H](CNC(=O)CC(=O)O)C(=O)O)C(=O)O)c1)C(=O)O)C(=O)O
Ki [1]: 33.8 nM

SMILES: O=C(O)CC[C@H](Nc1c(N[C@@H](CCCCNC(=O)c2cc(I)cc(C(=O)NCCCC[C@H](Nc3c(N[C@@H](CCC(=O)O)C(=O)O)c(=O)c3=O)C(=O)O)c2)C(=O)O)c(=O)c1=O)C(=O)O
Ki [1]: 107 nM

SMILES: O=C(NC(CCCCNC(=O)c1ccc(I)cc1)C(=O)O)N[C@@H](CNc1c(O)c(=O)c1=O)C(=O)O (stereo not given in full)
Ki [1]: 1.35 nM

Further compounds by falling Ki [1], results first:

Ki [1]: 1.07 nM
Drug uptake [2]: Not Active
Ratio [3]: 5.39
Drug uptake [4]: Not Active
Drug uptake [5]: Not Active
Ratio [6]: 4.79
Drug uptake [7]: Not Active
Drug uptake [8]: Active
Drug uptake [9]: Active
Drug uptake [10]: Not Active
Drug uptake [11]: Active
Drug uptake [12]: Not Active
Drug uptake [13]: Not Active
Drug uptake [14]: Not Active
Drug uptake [15]: Not Active
SMILES: CN(CCC(=O)NCCCC[C@H](NC(=O)N[C@@H](CNc1c(O)c(=O)c1=O)C(=O)O)C(=O)O)c1ccc(-c2c3c(c(-c4ccc(N(C)CCC(=O)NCCC[C@H](NC(=O)N[C@@H](CNc5c(O)c(=O)c5=O)C(=O)O)C(=O)O)cc4)c4nsnc24)N=S=N3)cc1

Ki [1]: 0.9 nM
SMILES: O=C(N[C@@H](CCCCNC(=O)c1ccc(F)cc1)C(=O)O)N[C@@H](CNc1c(O)c(=O)c1=O)C(=O)O

Ki [1]: 0.86 nM
SMILES: O=C(O)CC[C@H](NC(=O)N[C@@H](CCCNC(=O)c1ccc(F)cc1)C(=O)O)C(=O)O

Ki [1]: 0.41 nM
SMILES: O=C(N[C@@H](CCCCNC(=O)c1cc(F)cc(C(=O)NCCCC[C@H](NC(=O)N[C@@H](CNc2c(O)c(=O)c2=O)C(=O)O)C(=O)O)c1)C(=O)O)N[C@@H](CNc1c(O)c(=O)c1=O)C(=O)O

Ki [1]: 0.4 nM
SMILES: O=C(N[C@@H](CCCCNC(=O)c1cc(I)cc(C(=O)NCCCC[C@H](NC(=O)N[C@@H](CNc2c(O)c(=O)c2=O)C(=O)O)C(=O)O)c1)C(=O)O)N[C@@H](CNc1c(O)c(=O)c1=O)C(=O)O
